Assay results from patent US20100137230A1, “NEW PYRIDIN-2-ONE COMPOUNDS” (priority 2007, published 2010).

What was measured:
Assay type in all cases: cell-based
[1] = test system: panel of Gram positive and Gram negative bacteria; assay: in vitro screens against a panel of Gram positive and Gram negative bacteria
Method: (§1) All examples were tested against a panel of Gram positive and Gram negative bacteria. […] Typical MIC ranges […] are: S. aureus (MRSA) 0.06-2 (linezolid 1-2, ciprofloxacin 0.5-32) S. aureus (MSSA) 0.06-2 (linezolid 1-2, ciprofloxacin 0.125-1) E. faecalis 0.02-1 (linezolid 0.5-2, ciprofloxacin 0.5-32) E. faecium 0.02-1 (linezolid 1-2, ciprofloxacin 0.25-32) S. pneumoniae 0.02-1 (linezolid 0.125-1, ciprofloxacin 1-4) However, cleavage of saccharide modified compounds such as compounds from example 1 and 2 by esterases and glucosidases that occur in human plasma yields the corresponding antibiotically active compounds.

S. aureus (MRSA) = assay: MIC against panel of bacteria: S. aureus (MRSA)
Method: as §1

E. faecalis = assay: MIC against panel of bacteria: E. faecalis
Method: as §1

S. pneumoniae = assay: MIC against panel of bacteria: S. pneumoniae
Method: as §1

S. aureus (MSSA) = assay: MIC against panel of bacteria: S. aureus (MSSA)
Method: as §1

E. faecium = assay: MIC against panel of bacteria: E. faecium
Method: as §1

Typical MIC ranges (S. aureus (MRSA)) [µg/mL] | Typical MIC ranges (E. faecalis) [µg/mL] | Typical MIC ranges (S. pneumoniae) [µg/mL] | Typical MIC ranges (S. aureus (MSSA)) [µg/mL] | Typical MIC ranges (E. faecium) [µg/mL] | SMILES | activity in the in vitro screens [1]
 |  |  |  |  | CC(=O)NC[C@H]1CN(c2ccc(OCC3(OC(=O)[C@H](O)[C@@H](O)[C@H](O)[C@H](O)CO)CCN(c4c(F)cn5c(=O)c(C(=O)O)cc(C6CC6)c5c4C)CC3)c(F)c2)C(=O)O1 [Example 2, 8-[4-{4-[(S)-5-(Acetylamino-methyl)-2-oxo-oxazolidin-3-yl]-2-fluoro-phenoxymethyl}-4-((2R,3S,4R,5R)-2,3,4,5,6-pentahydroxy-hexanoyloxy)-piperidin-1-yl]-1-cyclopropyl-7-fluoro-9-methyl-4-oxo-4H-quinolizine-3-carboxylic acid] | inactive
 |  |  |  |  | CC(=O)NC[C@H]1CN(c2ccc(OCC3(OC(=O)[C@H]4O[C@@H](O)[C@H](O)[C@@H](O)[C@@H]4O)CCN(c4c(F)cn5c(=O)c(C(=O)O)cc(C6CC6)c5c4C)CC3)c(F)c2)C(=O)O1 [Example 1, 8-[4-{4-[(S)-5-(Acetylamino-methyl)-2-oxo-oxazolidin-3-yl]-2-fluoro-phenoxymethyl}-4-((2S,3S,4S,5R,6R)-3,4,5,6-tetrahydroxy-tetrahydro-pyran-2-carbonyloxy)-piperidin-1-yl]-1-cyclopropyl-7-fluoro-9-methyl-4-oxo-4H-quinolizine-3-carboxylic acid] | inactive
1 to 2 | 0.5 to 2 | 125 to 1000 |  |  | CC(=O)NC[C@H]1CN(c2ccc(N3CCOCC3)c(F)c2)C(=O)O1 [linezolid] | 
0.5 to 32 | 0.5 to 32 | 1 to 4 | 0.125 to 1 | 0.25 to 32 | O=C(O)c1cn(C2CC2)c2cc(N3CCNCC3)c(F)cc2c1=O [ciprofloxacin] | 
